Measurements: patent US20050107311A1, “Buffalo milk gangliosides” (priority 2001, published 2005)

Legend:
[1] = system: nar-3, a rotavirus toxin; assay: Binding to rotavirus toxin nar-3; details: GD3 from Folch LP vs UP
[2] = biological target: B-subunit of cholera toxin (CTB) (Vibrio cholerae serotype O1, UniProt P01556)
[3] = system: rotavirus particles; assay: Binding to rotavirus particles

Sequence of B-subunit of cholera toxin (CTB) (P01556 22-124 limits assumed): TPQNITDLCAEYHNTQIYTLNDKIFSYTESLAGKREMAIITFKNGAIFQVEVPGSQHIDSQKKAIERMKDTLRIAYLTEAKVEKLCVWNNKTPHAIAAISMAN

| Substance | binding to nar-3 [1] | binding of cholera toxin subunit B (CTB) [2] | other results |
| --- | --- | --- | --- |
| GD3 [GD3 species isolated from the organic LP] | bound to nar-3 |  |  |
| GD3 [GD3 isolated from the aqueous UP] | did not bind to this toxin |  |  |
| GD1a |  | not capable of binding the toxin |  |
| GM1 [GM1 isolated from buffalo milk serum] |  | binds to cholera toxin subunit B |  |
| GM3 [GM3 species] |  |  | binding of rotavirus particles [3]: bind rotavirus particles |
| GM1 [bovine-brain GM1 species] |  | bind CTB |  |
